One assay concerns the target Beta-secretase 1 (Homo sapiens, UniProt P56817). Nature of the assay: Inhibition of human BACE1 expressed in HEK293 cells. The class given is cell-based.
Assay [1] is described as follows: Inhibition of porcine pepsin. Details: species or system Sus scrofa.
The target of another assay is T1, Beta-secretase 2 (Homo sapiens, UniProt Q9Y5Z0).
T1 sequence (Q9Y5Z0 whole entry): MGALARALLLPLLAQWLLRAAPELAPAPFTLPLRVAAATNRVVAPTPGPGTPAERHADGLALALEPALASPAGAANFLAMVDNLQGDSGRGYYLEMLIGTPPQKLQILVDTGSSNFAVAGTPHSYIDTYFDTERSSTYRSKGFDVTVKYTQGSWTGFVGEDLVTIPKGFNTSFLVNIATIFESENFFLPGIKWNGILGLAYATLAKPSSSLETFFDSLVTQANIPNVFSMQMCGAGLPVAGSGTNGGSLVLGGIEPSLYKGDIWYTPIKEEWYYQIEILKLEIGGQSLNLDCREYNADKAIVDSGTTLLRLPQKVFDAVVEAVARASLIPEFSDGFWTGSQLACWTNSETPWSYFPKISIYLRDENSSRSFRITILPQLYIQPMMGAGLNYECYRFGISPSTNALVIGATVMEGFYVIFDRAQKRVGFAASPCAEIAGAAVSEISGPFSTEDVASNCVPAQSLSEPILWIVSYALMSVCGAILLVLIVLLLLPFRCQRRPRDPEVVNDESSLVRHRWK
Nature of the assay: Inhibition of BACE2 expressed in HEK293 cells. It is filed as cell-based.

The target in a further assay is Cathepsin D (Homo sapiens, UniProt P07339). Nature of the assay: Inhibition of cathepsin D expressed in HEK293 cells. The class given is cell-based.

*1 amine or outer side, *2 acyl side, *3 side chain or, on linkers, in order; H or OH if unused. Where a SMILES comes first, the peptide text is derived from it. [ ]: non-standard residue; d: D form. X3 = CC(C)C[C@@H](N[*:1])P(=O)(O)CC(C)C(=O)[*:2]; X1 = CC(C)C[C@H](N[*:1])P(=O)(O)CC(C)C(=O)[*:2]; X2 = CC(C)CC(N[*:1])P(=O)(O)CC(C)C(=O)[*:2]

From ChEMBL document CHEMBL1147996, “Synthesis and biological evaluation of phosphino dipeptide isostere inhibitor of human beta-secretase (BACE1)” (Bioorg Med Chem, 2007) come the findings set out here.

Chain of Beta-secretase 1 (P56817 whole entry): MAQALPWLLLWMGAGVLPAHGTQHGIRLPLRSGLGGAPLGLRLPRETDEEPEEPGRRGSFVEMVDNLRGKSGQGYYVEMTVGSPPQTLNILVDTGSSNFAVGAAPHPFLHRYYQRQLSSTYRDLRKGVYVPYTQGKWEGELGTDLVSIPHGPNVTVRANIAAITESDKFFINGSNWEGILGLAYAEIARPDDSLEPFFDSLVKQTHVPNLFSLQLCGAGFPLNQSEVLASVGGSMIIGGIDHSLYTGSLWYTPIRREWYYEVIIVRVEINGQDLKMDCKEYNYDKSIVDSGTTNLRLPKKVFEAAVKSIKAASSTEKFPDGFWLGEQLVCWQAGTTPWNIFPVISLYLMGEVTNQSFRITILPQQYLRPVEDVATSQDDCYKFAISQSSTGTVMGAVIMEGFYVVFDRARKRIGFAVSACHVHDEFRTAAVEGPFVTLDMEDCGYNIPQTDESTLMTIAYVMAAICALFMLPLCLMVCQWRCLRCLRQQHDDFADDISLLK
Chain of Cathepsin D (P07339 65-162 limits assumed): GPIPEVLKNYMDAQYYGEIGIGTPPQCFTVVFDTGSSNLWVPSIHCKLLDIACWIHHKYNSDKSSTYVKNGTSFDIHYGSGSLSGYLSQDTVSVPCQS
Chain of Cathepsin D (P07339 169-412 limits assumed): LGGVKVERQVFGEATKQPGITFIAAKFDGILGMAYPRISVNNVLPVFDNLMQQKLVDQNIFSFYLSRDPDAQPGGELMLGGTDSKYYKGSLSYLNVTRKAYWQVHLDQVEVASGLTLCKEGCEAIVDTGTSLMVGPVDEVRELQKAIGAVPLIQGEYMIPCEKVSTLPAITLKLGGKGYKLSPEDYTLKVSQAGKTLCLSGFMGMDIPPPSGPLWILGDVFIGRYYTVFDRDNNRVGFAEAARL

Broadly, the IC50 is the concentration at which inhibition is half-maximal. Read a high IC50 as weaker potency in that assay. `CC(C)CC(NC(=O)[C@H](CC(=O)O)NC(=O)[C@H](CC(C)C)NC(=O)[C@@H](N)CCC(=O)O)P(=O)(O)CC(C)C(=O)N[C@H](C(=O)N[C@@H](CCC(=O)O)C(=O)N[C@@H](Cc1ccccc1)C(=O)O)C(C)C` (stereo partly specified) (H-ELD[X2]VEF-OH): the IC50 at Beta-secretase 1 was found to be 675 nM.

For the compound `CC(C)C[C@H](NC(=O)[C@@H](N)CCC(=O)O)C(=O)N[C@@H](CC(=O)O)C(=O)N[C@@H](CC(C)C)P(=O)(O)CC(C)C(=O)N[C@H](C(=O)N[C@@H](CCC(=O)O)C(=O)N[C@@H](Cc1ccccc1)C(=O)O)C(C)C` (stereo partly specified) (H-ELD[X1]VEF-OH), the IC50 in assay [1] is 8 nM; on Beta-secretase 2, 12 nM; against Cathepsin D it was 28 nM; on Beta-secretase 1 it was 12 nM.

With `CC(C)C[C@H](NC(=O)[C@@H](N)CCC(=O)O)C(=O)N[C@@H](CC(=O)O)C(=O)N[C@H](CC(C)C)P(=O)(O)CC(C)C(=O)N[C@H](C(=O)N[C@@H](CCC(=O)O)C(=O)N[C@@H](Cc1ccccc1)C(=O)O)C(C)C` (stereo partly specified) (H-ELD[X3]VEF-OH), the IC50 against Beta-secretase 1 was 2020 nM.
